Results as given in EP0908457B1, “3-(1,2-benzisothiazol- and isoxazol-5-Y1)-2,4(1H,3H)-pyrimidinedione or thione and 3-(1,2-benzisothiazol- and isoxazol-5-y1)-4(3H)-pyrimidinone or thione herbicidal agents” (BASF AKTIENGESELLSCHAFT, priority 1997, dated 1999).

Legend:
[1] = test system: Cyperus serotinus, Rottb.; assay: Preemergence weed control under flooded paddy conditions, CYPSE (Flatsedge); type: in vivo; conditions: Rate 0.2500 kg/ha, preemergence weeds, rated three to four weeks after treatment
[2] = test system: Sagittaria pygmaea, L.; assay: Preemergence weed control under flooded paddy conditions, SAGPY (Arrowhead (Pygmaea)); type: in vivo; conditions: Rate 0.2500 kg/ha; preemergence weeds, flooded paddy; rated three to four weeks after treatment
[3] = test system: Cyperus iria; assay: Preemergence weed control under flooded paddy conditions, CYPIR (Rice Flatsedge); type: in vivo; conditions: Rate 0.2500 kg/ha; preemergence weeds, flooded paddy; rated three to four weeks after treatment
[4] = test system: Oryza sativa, (L.) Tebonnet; conditions: in vivo
[5] = test system: Echinochloa oryzoides (Ard.) Fritsch.; assay: Preemergence weed control under flooded paddy conditions, ECHORC (Watergrass (Calif.)); type: in vivo; conditions: Rate 0.2500 kg/ha; preemergence weeds, flooded paddy; rated three to four weeks after treatment
[6] = test system: Monochoria vaginalis, Presl.; assay: Preemergence weed control under flooded paddy conditions, MOOVA (Monochoria); type: in vivo; conditions: Rate 0.2500 kg/ha; preemergence weeds, flooded paddy; rated three to four weeks after treatment
Further: meaning of each grade not given here.

Cn1c(C(F)(F)F)cc(=O)n(-c2ccc3snc(CNS(C)(=O)=O)c3c2)c1=O [Example 305]
0.0: herbicidal effect rating, CYPSE [1] | herbicidal effect rating, SAGPY [2] | herbicidal effect rating, CYPIR [3] | herbicidal effect rating ORYSAT [4] | herbicidal effect rating, ECHORC [5] | herbicidal effect rating, MOOVA [6]
